Data from patent US10717730B1, “Dihydroisoquinoline compound” (SUZHOU ARK BIOPHARMACEUTICAL CO., LTD., priority 2017, dated 2020).
Where a name gives a salt, the structure may show the parent alone.

Test system: HBsAg
Experiment: HBsAg assay (secreted HBsAg by CLIA in HepG2.2.15 cells)
Format: cell-based, hepatitis B virus (HBV)
Details: Hepatitis B virus, HepG2.2.15, 96 h
Protocol: HepG2.2.15 cells (Sells et al, Proc Natl Acad Sci USA. 1987 February; 84(4):1005-9), a constitutively HBV-expressing cell line, were cultured in DMEM medium supplemented with 10% FBS and 400 μg/mL G418, and maintained in 5% CO2 at 37° C.
HepG2.2.15 cells were seeded into 96-well plates at 3×10^4 cells/well. The next day, the cells were treated with a five-fold serial dilution series of the compound in DMSO. The final DMSO concentration in all wells was 0.5% and 0.5% DMSO was used as no drug control. After four days of incubation with compounds, the supernatants were harvested and measured for HBsAg concentration
The HBsAg chemiluminescence immunoassay (CLIA) kit was used to measure the levels of secreted HBsAg. Specifically, 50 μL of culture supernatant was transferred to the CLIA assay plate and 50 μL of enzyme conjugate reagent was added into each well. The plates were sealed and incubated for 1 hour at room temperature. The supernatant-enzyme-mixture was discarded and wells were washed for 6 times. The residual liquid was removed by plating on tissue paper. 25 μL of substrate A and B were added into each well. Luminance was measured using a spectrometer (Tecan Infinite® F200) after 10 minutes incubation. IC50 value was extrapolated based the dose-response curves generated from the data.

SMILES | IC50
COc1cc2c(cc1-c1cn[nH]c1)CC(C(C)C)n1cc(C(=O)O)c(=O)cc1-2 (centres unmarked) [Example 1, 6-isopropyl-10-methoxy-2-oxo-9-(1H-pyrazol-4-yl)-6,7-dihydro-2H-pyrido[2,1-a]isoquinoline-3-carboxylic acid] | 14 nM
COc1cc2c(cc1-c1cnn(CC(F)(F)F)c1)CC(C(C)C)n1cc(C(=O)O)c(=O)cc1-2 (centres unmarked) [Example 2, 6-isopropyl-10-methoxy-2-oxo-9-(1-(2,2,2-trifluoroethyl)-1H-pyrazol-4-yl)-6,7-dihydro-2H-pyrido[2,1-a]isoquinoline-3-carboxylic acid] | 8 nM
COCCn1cc(-c2cc3c(cc2OC)-c2cc(=O)c(C(=O)O)cn2C(C(C)C)C3)cn1 (centres unmarked) [Example 3, 6-isopropyl-10-methoxy-9-(1-(2-methoxyethyl)-1H-pyrazol-4-yl)-2-oxo-6,7-dihydro-2H-pyrido[2,1-a]isoquinoline-3-carboxylic acid] | 18 nM
COc1cc2c(cc1-c1cnn(CCCO)c1)CC(C(C)C)n1cc(C(=O)O)c(=O)cc1-2 (centres unmarked) [Example 4, 9-(1-(3-hydroxypropyl)-1H-pyrazol-4-yl)-6-isopropyl-10-methoxy-2-oxo-6,7-dihydro-2H-pyrido[2,1-a]isoquinoline-3-carboxxylic acid] | 24 nM
COc1cc2c(cc1-c1cnn(CC(C)C)c1)CC(C(C)C)n1cc(C(=O)O)c(=O)cc1-2 (centres unmarked) [Example 5, 9-(1-isobutyl-1H-pyrazol-4-yl)-6-isopropyl-10-methoxy-2-oxo-6,7-dihydro-2H-pyrido[2,1-a]isoquinoline-3-carboxylic acid] | 14 nM
CCCn1cc(-c2cc3c(cc2OC)-c2cc(=O)c(C(=O)O)cn2C(C(C)C)C3)cn1 (centres unmarked) [Example 6, 6-isopropyl-10-methoxy-2-oxo-9-(1-propyl-1H-pyrazol-4-yl)-6,7-dihydro-2H-pyrido[2,1-a]isoquinoline-3-carboxylic acid] | 6 nM
COc1cc2c(cc1-c1ccc(C)nc1)CC(C(C)C)n1cc(C(=O)O)c(=O)cc1-2 (centres unmarked) [Example 7, 6-isopropyl-10-methoxy-9-(6-methylpyridin-3-yl)-2-oxo-6,7-dihydro-2H-pyrido[2,1-a]isoquinoline-3-carboxylic acid] | 36 nM
COc1cc2c(cc1-c1cn[nH]c1)CC(C(C)(C)C)n1cc(C(=O)O)c(=O)cc1-2 (centres unmarked) [Example 8, 6-(tert-butyl)-10-methoxy-2-oxo-9-(1H-pyrazol-4-yl)-6,7-dihydro-2H-pyrido[2,1-a]isoquinoline-3-carboxylic acid] | 9 nM
COc1cc2c(cc1-c1cnn(CCCO)c1)CC(C(C)(C)C)n1cc(C(=O)O)c(=O)cc1-2 (centres unmarked) [Example 9, 6-(tert-butyl)-9-(1-(3-hydroxypropyl)-1H-pyrazol-4-yl)-10-methoxy-2-oxo-6,7-dihydro-2H-pyrido[2,1-a]isoquinoline-3-carboxylic acid] | 290 nM
COc1cc2c(cc1-c1cnn(CC(F)(F)F)c1)CC(C(C)(C)C)n1cc(C(=O)O)c(=O)cc1-2 (centres unmarked) [Example 10, 6-(tert-butyl)-10-methoxy-2-oxo-9-(1-(2,2,2-trifluoroethyl)-1H-pyrazol-4-yl)-6,7-dihydro-2H-pyrido[2,1-a]isoquinoline-3-carboxylic acid] | 6 nM
COc1cc2c(cc1-c1cnn(C3COC3)c1)CC(C(C)(C)C)n1cc(C(=O)O)c(=O)cc1-2 (centres unmarked) [Example 11, 6-(tert-butyl)-10-methoxy-9-(1-(oxetan-3-yl)-1H-pyrazol-4-yl)-2-oxo-6,7-dihydro-2H-pyrido[2,1-a]isoquinoline-2-carboxylic acid] | 3 nM
COc1cc2c(cc1-c1cnn(CC(C)O)c1)CC(C(C)(C)C)n1cc(C(=O)O)c(=O)cc1-2 (centres unmarked) [Example 12, 6-(tert-butyl)-9-(1-(2-hydroxypropyl)-1H-pyrazol-4-yl)-10-methoxy-2-oxo-6,7-dihydro-2H-pyrido[2,1-a]isoquinoline-3-carboxylic acid] | 2 nM
COc1cc2c(cc1-c1ccnn1C)CC(C(C)(C)C)n1cc(C(=O)O)c(=O)cc1-2 (centres unmarked) [Example 13, 6-(tert-butyl)-10-methoxy-9-(1-methyl-1H-pyrazol-5-yl)-2-oxo-6,7-dihydro-2H-pyrido[2,1-a]isoquinoline-3-carboxylic acid] | 18 nM
COc1cc2c(cc1-c1cnn(C(F)F)c1)CC(C(C)(C)C)n1cc(C(=O)O)c(=O)cc1-2 (centres unmarked) [Example 14, 6-(tert-butyl)-9-(1-(difluoromethyl)-1H-pyrazol-4-yl)-10-methoxy-2-oxo-6,7-dihydro-2H-pyrido[2,1-a]isoquinoline-3-carboxylic acid] | 2 nM
COc1cc2c(cc1-c1cc(C)nn1C)CC(C(C)(C)C)n1cc(C(=O)O)c(=O)cc1-2 (centres unmarked) [Example 15, 6-(tert-butyl)-9-(1,3-dimethyl-1H-pyrazol-5-yl)-10-methoxy-2-oxo-6,7-dihydro-2H-pyrido[2,1-a]isoquinoline-3-carboxylic acid] | 4 nM
COc1cc2c(cc1-c1cnn(CCN3CCOCC3)c1)CC(C(C)(C)C)n1cc(C(=O)O)c(=O)cc1-2 (centres unmarked) [Example 16, 6-(tert-butyl)-10-methoxy-9-(1-(2-morpholinylethyl)-1H-pyrazol-4-yl)-2-oxo-6,7-dihydro-2H-pyrido[2,1-a]isoquinoline-3-carboxylaic acid] | 2 nM
COc1cc2c(cc1-c1cnn(C3CCNCC3)c1)CC(C(C)(C)C)n1cc(C(=O)O)c(=O)cc1-2 (centres unmarked) [Example 17, 6-(tert-butyl)-10-methoxy-2-oxo-9-(1-(piperidin-4-yl)-1H-pyrazol-4-yl)-6,7-dihydro-2H-pyrido[2,1-a]isoquinoline-3-carboxylic acid hydrochloride] | 25 nM
CCOC(=O)CCn1cc(-c2cc3c(cc2OC)-c2cc(=O)c(C(=O)O)cn2C(C(C)(C)C)C3)cn1 (centres unmarked) [Example 23, 6-(tert-butyl)-9-(1-(3-ethoxy-3-oxopropyl)-1H-pyrazol-4-yl)-10-methoxy-2-oxo-6,7-dihydro-2H-pyrido[2,1-a]isoquinoline-3-carboxylic acid] | 40 nM
COc1cc2c(cc1-c1cnn(C(C)C(=O)O)c1)CC(C(C)(C)C)n1cc(C(=O)O)c(=O)cc1-2 (centres unmarked) [Example 26, 6-(tert-butyl)-9-(1-(1-carboxyethyl)-1H-pyrazol-4-yl)-10-methoxy-2-oxo-6,7-dihydro-2H-pyrido[2,1-a]isoquinoline-3-carboxylic acid] | 8 nM
COc1cc2c(cc1-c1cnn(C(C)(C)C(=O)O)c1)CC(C(C)(C)C)n1cc(C(=O)O)c(=O)cc1-2 (centres unmarked) [Example 27, 6-(tert-butyl)-9-(1-(2-carboxyprop-2-yl)-1H-pyrazol-4-yl)-10-methoxy-2-oxo-6,7-dihydro-2H-pyrido[2,1-a]isoquinoline-3-carboxylic acid] | 4 nM
COc1cc2c(cc1-c1nc[nH]n1)CC(C(C)(C)C)n1cc(C(=O)O)c(=O)cc1-2 (centres unmarked) [Example 29, 6-(tert-butyl)-10-methoxy-2-oxo-9-(1H-1,2,4-triazol-3-yl)-6,7-dihydro-2H-pyrido[2,1-a]isoquinoline-3-carboxylic acid] | 12 nM
COc1cc2c(cc1-c1ncn(CC(=O)O)n1)CC(C(C)(C)C)n1cc(C(=O)O)c(=O)cc1-2 (centres unmarked) [Example 30, 6-(tert-butyl)-9-(1-(carboxymethyl)-1H-1,2,4-triazol-3-yl)-10-methoxy-2-oxo-6,7-dihydro-2H-pyrido[2,1-a]isoquinoline-3-carboxylic acid] | 13 nM
COc1cc2c(cc1-c1ccccc1)CC(C(C)(C)C)n1cc(C(=O)O)c(=O)cc1-2 (centres unmarked) [Example 33, 6-(tert-butyl)-10-methoxy-2-oxo-9-phenyl-6,7-dihydro-2H-pyrido[2,1-a]isoquinoline-3-carboxylic acid] | 20 nM
CCc1ccc(-c2cc3c(cc2OC)-c2cc(=O)c(C(=O)O)cn2C(C(C)(C)C)C3)cc1 (centres unmarked) [Example 34, 6-(tert-butyl)-9-(4-ethylphenyl)-10-methoxy-2-oxo-6,7-dihydro-2H-pyrido[2,1-a]isoquinoline-3-carboxylic acid] | 36 nM
COc1ccc(-c2cc3c(cc2OC)-c2cc(=O)c(C(=O)O)cn2C(C(C)(C)C)C3)cc1 (centres unmarked) [Example 35, 6-(tert-butyl)-10-methoxy-9-(4-methoxyphenyl)-2-oxo-6,7-dihydro-2H-pyrido[2,1-a]isoquinoline-3-carboxylic acid] | 290 nM
COc1cccc(-c2cc3c(cc2OC)-c2cc(=O)c(C(=O)O)cn2C(C(C)(C)C)C3)c1 (centres unmarked) [Example 36, 6-(tert-butyl)-10-methoxy-9-(3-methoxyphenyl)-2-oxo-6,7-dihydro-2H-pyrido[2,1-a]isoquinoline-3-carboxylic acid] | 10 nM
COc1cc2c(cc1-c1ccnc(C)c1)CC(C(C)(C)C)n1cc(C(=O)O)c(=O)cc1-2 (centres unmarked) [Example 38, 6-(tert-butyl)-10-methoxy-9-(2-methylpyridin-4-yl)-2-oxo-6,7-dihydro-2H-pyrido[2,1-a]isoquinoline-3-carboxylic acid] | 5 nM
COc1cc2c(cc1-c1cccnc1C)CC(C(C)(C)C)n1cc(C(=O)O)c(=O)cc1-2 (centres unmarked) [Example 39, 6-(tert-butyl)-10-methoxy-9-(2-methylpyridin-3-yl)-2-oxo-6,7-dihydro-2H-pyrido[2,1-a]isoquinoline-3-carboxylic acid] | 25 nM
COc1cc2c(cc1-c1ccc(N3CCOCC3)nc1)CC(C(C)(C)C)n1cc(C(=O)O)c(=O)cc1-2 (centres unmarked) [Example 40, 6-(tert-butyl)-10-methoxy-9-(6-morpholinylpyridin-3-yl)-2-oxo-6,7-dihydro-2H-pyrido[2,1-a]isoquinoline-3-carboxylic acid] | 6 nM
